Data: patent US20230041743A1, “1,8-NAPHTHYRIDIN-2-ONE COMPOUNDS FOR THE TREATMENT OF AUTOIMMUNE DISEASE” (Hoffmann-La Roche Inc., priority 2019, published 2023)
pIC50: −log10 of the molar value.

Target: T1, human TLR7 (Homo sapiens, UniProt Q9NYK1)
T1 construct: host or cells: HEK293 (HEK-Blue hTLR7)
T1 sequence (Q9NYK1 27-1049): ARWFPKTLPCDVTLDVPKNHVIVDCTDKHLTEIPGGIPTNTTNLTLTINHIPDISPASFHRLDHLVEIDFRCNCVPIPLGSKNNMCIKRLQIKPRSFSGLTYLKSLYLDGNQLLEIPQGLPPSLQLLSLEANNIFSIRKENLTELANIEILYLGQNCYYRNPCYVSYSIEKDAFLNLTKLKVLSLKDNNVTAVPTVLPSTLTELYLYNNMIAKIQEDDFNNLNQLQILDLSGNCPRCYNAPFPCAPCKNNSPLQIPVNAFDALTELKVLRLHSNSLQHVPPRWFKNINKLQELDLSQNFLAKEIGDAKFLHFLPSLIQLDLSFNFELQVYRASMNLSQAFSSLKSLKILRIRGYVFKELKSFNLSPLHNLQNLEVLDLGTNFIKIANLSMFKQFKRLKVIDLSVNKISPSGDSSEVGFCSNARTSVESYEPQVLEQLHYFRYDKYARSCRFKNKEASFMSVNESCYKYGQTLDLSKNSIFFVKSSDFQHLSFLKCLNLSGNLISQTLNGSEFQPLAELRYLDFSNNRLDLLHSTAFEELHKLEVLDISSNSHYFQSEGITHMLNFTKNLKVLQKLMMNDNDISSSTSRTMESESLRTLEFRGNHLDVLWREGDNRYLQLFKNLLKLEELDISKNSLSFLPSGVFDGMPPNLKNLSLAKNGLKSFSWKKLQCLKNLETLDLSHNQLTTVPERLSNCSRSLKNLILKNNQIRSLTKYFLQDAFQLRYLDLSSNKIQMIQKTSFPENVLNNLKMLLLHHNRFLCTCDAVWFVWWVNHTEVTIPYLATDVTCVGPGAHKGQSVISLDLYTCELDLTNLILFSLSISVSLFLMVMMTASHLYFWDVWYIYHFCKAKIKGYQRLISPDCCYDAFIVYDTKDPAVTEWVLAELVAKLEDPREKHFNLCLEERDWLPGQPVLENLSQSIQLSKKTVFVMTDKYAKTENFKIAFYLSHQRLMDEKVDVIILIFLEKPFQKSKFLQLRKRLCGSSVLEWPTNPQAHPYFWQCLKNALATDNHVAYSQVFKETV
Test: HEK293-Blue-hTLR-7 cells assay (SEAP reporter, R848 stimulation)
Type: cell-based
Conditions: HEK293-Blue-hTLR7 cells, R848 ligand, 20 hrs incubation; read-out: HEK/hTLR7 IC50
Excerpt: HEK293-Blue-hTLR-7 Cells Assay:
A stable HEK293-Blue-hTLR-7 cell line was purchased from InvivoGen (Cat. #: hkb-htlr7, San Diego, Calif., USA). These cells were originally designed for studying the stimulation of human TLR7 by monitoring the activation of NF-κB. A SEAP (secreted embryonic alkaline phosphatase) reporter gene was placed under the control of the IFN-β minimal promoter fused to five NF-κB and AP-1-binding sites. The SEAP was induced by activating NF-κB and AP-1 via stimulating HEK-Blue hTLR7 cells with TLR7 ligands. Therefore the reporter expression was declined by TLR7 antagonist under the stimulation of a ligand, such as R848 (Resiquimod), for incubation of 20 hrs. The cell culture supernatant SEAP reporter activity was determined using QUANTI-Blue™ kit (Cat. #: rep-qb1, Invivogen, San Diego, Ca, USA) at a wavelength of 640 nm, a detection medium that turns purple or blue in the presence of alkaline phosphatase.
HEK293-Blue-hTLR7 cells were incubated at a density of 250,000-450,000 cells/mL in a volume of 170 μL in a 96-well plate in Dulbecco's Modified Eagle's medium (DMEM) containing 4.5 g/L glucose, 50 U/mL penicillin, […], […], 2 mM L-glutamine, 10% (v/v) heat-inactivated fetal bovine serum with addition of 20 μL test compound in a serial dilution in the presence of final DMSO at 1% and 10 μL of 20 uM R848 in above DMEM, perform incubation under 37° C. in a CO2 incubator for 20 hrs. Then 20 μL of the supernatant from each well was incubated with 180 μL Quanti-blue substrate solution at 37° C. for 2 hrs and the absorbance was read at 620˜655 nm using a spectrophotometer. The signaling pathway that TLR7 activation leads to downstream NF-κB activation has been widely accepted, and therefore similar reporter assay was modified for evaluating TLR7 antagonist.

Point of comparison: C[C@@H]1CN(c2cc(=O)n(C)c3ncccc23)C[C@@H]2c3ccc(C4CCCNC4)cc3CN12 (stereo partly drawn) [Example 25, 4-[(4R,10bS)-4-methyl-8-(3-piperidyl)-3,4,6,10b-tetrahydro-1H-pyrazino[2,1-a]isoindol-2-yl]-1-methyl-1,8-naphthyridin-2-one], pIC50 8.17. Against it:
- C[C@@H]1CN(c2cc(=O)n(C)c3ncccc23)C[C@@H]2c3ccc(N4CCOC[C@H](N)C4)cc3CN12 [Example 22, 4-[(4R,10bS)-8-[(6R)-6-amino-1,4-oxazepan-4-yl]-4-methyl-3,4,6,10b-tetrahydro-1H-pyrazino[2,1-a]isoindol-2-yl]-1-methyl-1,8-naphthyridin-2-one] — 0.72 log units lower, 7.45
- C[C@@H]1CN(c2cc(=O)n(C)c3ncccc23)C[C@@H]2c3ccc(OCCN(C)C)cc3CN12 [Example 23, 4-[(4R,10bS)-8-[2-(dimethylamino)ethoxy]-4-methyl-3,4,6,10b-tetrahydro-1H-pyrazino[2,1-a]isoindol-2-yl]-1-methyl-1,8-naphthyridin-2-one] — 0.66 log units lower, 7.51
- C[C@@H]1CN(c2cc(=O)n(C)c3ncccc23)C[C@@H]2c3ccc(C4CCNCC4)cc3CN12 [Example 24, 4-[(4R,10bS)-4-methyl-8-(4-piperidyl)-3,4,6,10b-tetrahydro-1H-pyrazino[2,1-a]isoindol-2-yl]-1-methyl-1,8-naphthyridin-2-one] — 0.26 log units higher, 8.43
- C[C@@H]1CN(c2cc(=O)n(C)c3ncccc23)C[C@@H]2c3ccc(C4CCNC4)cc3CN12 (stereo partly drawn) [Example 26, 4-[(4R,10bS)-4-methyl-8-pyrrolidin-3-yl-3,4,6,10b-tetrahydro-1H-pyrazino[2,1-a]isoindol-2-yl]-1-methyl-1,8-naphthyridin-2-one] — within 0.2 log units, 8.08
- C[C@@H]1CN(c2cc(=O)n(C)c3ncccc23)C[C@@H]2c3ccc([C@H]4CC[C@H](N5CCOCC5)CC4)cc3CN12 [Example 27A, 4-[(4R,10bS)-4-methyl-8-(trans-4-morpholinocyclohexyl)-3,4,6,10b-tetrahydro-1H-pyrazino[2,1-a]isoindol-2-yl]-1-methyl-1,8-naphthyridin-2-one] — within 0.2 log units, 8.15
- C[C@@H]1CN(c2cc(=O)n(C)c3ncccc23)C[C@@H]2c3ccc([C@H]4CC[C@@H](N5CCOCC5)CC4)cc3CN12 [Example 27B, 4-[(4R,10bS)-4-methyl-8-(cis-4-morpholinocyclohexyl)-3,4,6,10b-tetrahydro-1H-pyrazino[2,1-a]isoindol-2-yl]-1-methyl-1,8-naphthyridin-2-one] — within 0.2 log units, 8.00
- C[C@@H]1CN(c2cc(=O)n(C)c3ncccc23)C[C@@H]2c3ccc([C@H]4C[C@H]5COC[C@@H](C4)N5)cc3CN12 [Example 28A, 4-[(4R,10bS)-4-methyl-8-(endo-3-oxa-9-azabicyclo[3.3.1]nonan-7-yl)-3,4,6,10b-tetrahydro-1H-pyrazino[2,1-a]isoindol-2-yl]-1-methyl-1,8-naphthyridin-2-one] — within 0.2 log units, 8.14
- C[C@@H]1CN(c2cc(=O)n(C)c3ncccc23)C[C@@H]2c3ccc([C@@H]4C[C@H]5COC[C@@H](C4)N5)cc3CN12 [Example 28B, 4-[(4R,10bS)-4-methyl-8-(exo-3-oxa-9-azabicyclo[3.3.1]nonan-7-yl)-3,4,6,10b-tetrahydro-1H-pyrazino[2,1-a]isoindol-2-yl]-1-methyl-1,8-naphthyridin-2-one] — within 0.2 log units, 8.07
- CCn1c(=O)cc(N2C[C@@H](C)N3Cc4cc(N5C[C@@H](N)[C@H](OC)C5)ccc4[C@H]3C2)c2cccnc21 [Example 29, 4-[(4R,10bS)-8-[(3R,4R)-3-amino-4-methoxy-pyrrolidin-1-yl]-4-methyl-3,4,6,10b-tetrahydro-1H-pyrazino[2,1-a]isoindol-2-yl]-1-ethyl-1,8-naphthyridin-2-one] — 1.10 log units lower, 7.07
